“And” between values parts separate entries of the source, which are not always exact repeats. Equal values may be shown once.
What was measured:
in vivo = conditions: male, CD-1, mouse, sc
Protocol: Blood was kept on ice until centrifuged at 4600 rpm for five minutes at 4° C. Plasma was stored at −80° C. until analysis. Compounds were extracted from plasma and quantified against a standard curve using an AB Sciex 7500+LC-MS/MS system (FIG. 5).

[1] = Phase 1 first-in-human SAD/MAD study: pharmacokinetics; type: in vivo; conditions: for Tmax: median Tmax
From the text: This was a randomized, double-blind, placebo-controlled, dose escalation first-in-human (FIH) conducted from December 2018 to January 2020 at a study center in Victoria, Australia in accordance with principles of the Declaration of Helsinki (Ethical Principles for Medical Research Involving Human Subjects), and the NHMRC National Statement on Ethical Conduct in Human Research 2007 (updated 2018). (Registered on the Australian New Zealand Clinical Trials Registry [ANZCTR] under the identifier: ACTRN12618001988246).
Daily doses were given on Day 2 to Day 14. Cohort M1 was dosed with the highest dose level, determined based on the safety and PK data from the preceding Part 1 (SAD), and doses were decreased sequentially for Cohorts M2 and M3 (FIG. 46B).
Characterization of PK profile: PK parameters included maximum concentration (Cmax), time to maximum concentration (Tmax), area under the plasma concentration-time curve (AUC). Blood samples were collected within two hours prior to dosing for pre-dose samples and within ±10 minutes of the nominal/planned time post-dose. For Part 1 (SAD) participants, samples were taken at −2 to 0 hr (pre-dose), 1, 2, 3, 4, 6, 8, 12, 16, 20 hr (Day 1), 24, 30, 36 hr (Day 2), 48 hr (Day 3) and on Day 8 (±1 day, follow-up) post-dose. For Part 2 (MAD) participants, collection occurred −2 to 0 hr (pre-dose), 2, 3, 4, 6, 8, 12 hr (Day 1), 24 hr (Day 2), 48, 60 hr (Day 3), 72 hr (Day 4), 96 hr (Day 5). For Days 7, 8, 11 and 14, samples were taken −2 to 0 hr (pre-dose), 12 hr on Day 7, 2, 4, 6, 8, 12 hr on Day 14, 24, 36 hr on Day 15, 48 hr on Day 16 and on Day 21 (+1 day, follow-up) post-dose.
Estimates for PK parameters are tabulated and summarized by descriptive statistics (mean, standard deviation [SD], median, minimum, and maximum, coefficient of variation [CV %], geometric mean and geometric CV %). Dose proportionality was analyzed using the power model with log-transformed PK parameter values and log-transformed dose. The power model was used to estimate the slope parameter and the 90% confidence intervals (CIs) for the slope. Dose proportionality was generally concluded if the 90% CIs around the slope estimate include the value of 1.

DIO C57BL/6J mice = assay: chronic daily SC dosing in DIO mice (body weight, food, glucose, insulin, tissue weights); type: in vivo, mouse
Protocol: Body weight and food consumption were measured daily (FIGS. 8 and 9). On the last day of the study mice were fasted for 5 hours. At the end of the fasting period, glucose was measured (FIG. 6) and plasma was collected for insulin analysis. Plasma insulin was measured using an MSD kit. Fasting glucose and insulin were used to calculate the log (HOMA-IR) (FIG. 7).
Body weight was measured daily (FIG. 11). […] On the last day of the study, glucose was measured, and plasma was collected for insulin analysis. Plasma insulin was measured using an MSD kit. Glucose and insulin were used to calculate log (HOMA-IR) (FIG. 10).
DIO mice were acclimated to daily weighing and handling for approximately 1 week until their weight had stabilized. Mice were injected subcutaneously once daily with the indicated dose of peptide, or vehicle, based on current body weight. Injections were performed six hours before the dark cycle started to approximate reaching Tmax when the dark cycle started. Where indicated, 24-hour food consumption studies were performed as described above. Body weight as a percentage of initial weight was calculated daily by dividing the daily body weight by the body weight taken before the first dose of peptide, multiplied by 100%. Blood glucose was determined at study termination, and blood was collected to quantify plasma insulin concentrations. Mice were sedated by isoflurane and euthanized by decapitation. […] Plasma was stored at −80° C. until analysis. Subcutaneous and inguinal fat and the liver were removed and weighed.
DIO and ob/ob mice were acclimated to daily weighing and handling for approximately one week until weight had stabilized. […] Injections were performed six hours before the start of the dark cycle to approximate reaching Tmax when the dark cycle started. […] In both the DIO and ob/ob weight loss studies, body weight as a percentage of initial weight was calculated daily by dividing the daily body weight by the body weight taken before the first dose of peptide, multiplied by 100%. Blood glucose was determined at study termination, and blood was collected to quantify plasma insulin concentrations. Mice were sedated by isoflurane and euthanized by decapitation. […] Subcutaneous and inguinal fat and the liver were removed and weighed.

C57BL/6J-DIO mice = assay: intraperitoneal glucose tolerance test in DIO mice; type: in vivo, mouse; conditions: DIO mice; 20 nmol/kg
lean C57BL/6J mice = assay: intraperitoneal glucose tolerance test in lean mice

CCCCCCCCCCCCCCCC(=O)N[C@@H](CCC(=O)NCCCC[C@H](NC(=O)[C@H](CO)NC(=O)[C@@H]1CCCN1C(=O)[C@@H]1CCCN1C(=O)[C@@H]1CCCN1C(=O)[C@H](C)NC(=O)CNC(=O)[C@H](CO)NC(=O)[C@H](CO)NC(=O)[C@@H]1CCCN1C(=O)CNC(=O)CNC(=O)[C@H](C)NC(=O)[C@H](CC(C)C)NC(=O)[C@H](CC(C)C)NC(=O)[C@H](Cc1c[nH]c2ccccc12)NC(=O)[C@H](CC(N)=O)NC(=O)[C@@H](NC(=O)[C@H](Cc1ccccc1)NC(=O)[C@H](CCC(=O)O)NC(=O)C(C)(C)NC(=O)[C@H](C)NC(=O)[C@H](C)NC(=O)[C@H](CCC(N)=O)NC(=O)[C@H](CCCCN)NC(=O)[C@H](CC(=O)O)NC(=O)[C@H](CC(C)C)NC(=O)[C@H](Cc1ccc(O)cc1)NC(=O)[C@@H](NC(=O)[C@H](CO)NC(=O)[C@H](Cc1ccc(O)cc1)NC(=O)[C@H](CC(=O)O)NC(=O)[C@H](CO)NC(=O)[C@@H](NC(=O)[C@H](Cc1ccccc1)NC(=O)[C@@H](NC(=O)CNC(=O)[C@H](CCC(=O)O)NC(=O)CSCC(=O)NCCN1CCCCC1=O)[C@@H](C)O)[C@@H](C)O)[C@@H](C)CC)C(C)C)C(N)=O)C(=O)O [CT-868]
AUC(0-inf) (in vivo): 7.92 µM·h
half-life (in vivo): 7 h
plasma concentrations after 14 days of dosing vs dose (in words) ([1]; MAD 0.75-5.0 mg): dose-related but not dose-proportional
plasma concentrations over repeated daily dosing (in words) ([1]; MAD 0.75-5.0 mg): reached a plateau after a few days of dosing
Tmax ([1]; human, in vivo, 0.5 mg): 3 h
AUC0-t ([1]; human, in vivo, 1.5 mg): 154.2 [45.7%] h*ng/ml
AUC(0-inf) ([1]; human, in vivo, 1.5 mg): 184.9 [47.6%] h*ng/ml
Cmax, geometric mean (% CV) ([1]; human, in vivo, 1.5 mg): 5.62 [28.1%] ng/ml
half-life ([1]; human, in vivo, 1.5 mg): 77.3 h
median Tmax ([1]; human, in vivo, 1.5 mg): 8.0 h
AUC(0-inf) ([1]; human, in vivo, 1.5 mg, AUC0-inf): 209 ng·h/mL
AUC0-t ([1]; human, in vivo, 1.5 mg, AUC0-t): 167 ng·h/mL
Cmax ([1]; human, in vivo, 1.5 mg, Cmax, geometric mean (% CV)): 7.79 ng/mL
Tmax ([1]; human, in vivo, 1.5 mg): 6 h
Tmax ([1]; human, in vivo, 7.5 mg): 20 h
half-life ([1]; human, in vivo, 11 mg): 19.7 h
Tmax ([1]; human, in vivo, predominant range): 3 to 12 h
mean Cmax vs dose (in words) ([1]; in vivo): increased with increasing dose level
time to maximum plasma concentrations after the first dose ([1]; in vivo): 48 to 96 h

CCCCCCCCCCCCCCCC(=O)N[C@@H](CCC(=O)NCCCC[C@H](NC(=O)[C@H](CO)NC(=O)[C@@H]1CCCN1C(=O)[C@@H]1CCCN1C(=O)[C@@H]1CCCN1C(=O)[C@H](C)NC(=O)CNC(=O)[C@H](CO)NC(=O)[C@H](CO)NC(=O)[C@@H]1CCCN1C(=O)CNC(=O)CNC(=O)[C@H](C)NC(=O)[C@H](CC(C)C)NC(=O)[C@H](CC(C)C)NC(=O)[C@H](Cc1c[nH]c2ccccc12)NC(=O)[C@H](CC(N)=O)NC(=O)[C@@H](NC(=O)[C@H](Cc1ccccc1)NC(=O)[C@H](CCC(=O)O)NC(=O)C(C)(C)NC(=O)[C@H](C)NC(=O)[C@H](C)NC(=O)[C@H](CCC(N)=O)NC(=O)[C@H](CCCCN)NC(=O)[C@H](CC(=O)O)NC(=O)[C@H](CC(C)C)NC(=O)[C@H](Cc1ccc(O)cc1)NC(=O)[C@@H](NC(=O)[C@H](CO)NC(=O)[C@H](Cc1ccc(O)cc1)NC(=O)[C@H](CC(=O)O)NC(=O)[C@H](CO)NC(=O)[C@@H](NC(=O)[C@H](Cc1ccccc1)NC(=O)[C@@H](NC(=O)CNC(=O)[C@H](CCC(=O)O)NC(=O)CSCC(=O)NCCN1C(=O)CSC1=O)[C@@H](C)O)[C@@H](C)O)[C@@H](C)CC)C(C)C)C(N)=O)C(=O)O [CT-859]
adipose tissue weight vs liraglutide (in words) (DIO C57BL/6J mice): decreases adipose tissue weight more than liraglutide
body weight vs liraglutide (in words) (DIO C57BL/6J mice; 20 and 200 nmol/kg): decreases body weight more than liraglutide at non-GIPR and GIPR engaging doses
body weight decreased compared to liraglutide, end of study (DIO C57BL/6J mice; DIO mice, 20 nmol/kg, 19 days): 8%
body weight decreased compared to vehicle, end of study (DIO C57BL/6J mice; DIO mice, 20 nmol/kg, 19 days): 20%
fasting glucose (in words) (DIO C57BL/6J mice; DIO mice, 20 nmol/kg, 19 days): lowered fasting glucose more than liraglutide
inguinal adipose weight lower than vehicle (DIO C57BL/6J mice; DIO mice, 20 nmol/kg, 19 days): 39%
cumulative food intake vs liraglutide (in words) (DIO C57BL/6J mice; DIO mice, 20 nmol/kg, 20 days): without significant difference in cumulative food intake
fasting GLUC (DIO C57BL/6J mice; DIO mice, 20 nmol/kg, 20 days): 146.5 mg/dL
weight loss (WL) (DIO C57BL/6J mice; DIO mice, 20 nmol/kg, 20 days): −16.5%
insulin resistance log (HOMA-IR) (DIO C57BL/6J mice; DIO mice, 20 nmol/kg, 20 days, fasted): 0.74
adipose weight (in words) (DIO C57BL/6J mice; DIO mice, 200 nmol/kg, 19 days): decreased inguinal and epididymal adipose weight more than liraglutide
body weight decreased compared to liraglutide, end of study (DIO C57BL/6J mice; DIO mice, 200 nmol/kg, 19 days): 14%
body weight decreased compared to vehicle, end of study (DIO C57BL/6J mice; DIO mice, 200 nmol/kg, 19 days): 33% and ~35%
fed glucose levels (in words) (DIO C57BL/6J mice; DIO mice, 200 nmol/kg, 19 days): decreased fed glucose levels more than the vehicle
nonfasted log (HOMA-IR) (DIO C57BL/6J mice; DIO mice, 200 nmol/kg, 20 days): 1.17
weight loss (WL) (DIO C57BL/6J mice; DIO mice, 200 nmol/kg, 20 days): −30.1%
food consumption lowered compared to liraglutide (DIO C57BL/6J mice; DIO mice, 200 nmol/kg, after 7 days of dosing): 39%
food intake (DIO C57BL/6J mice; DIO mice, 200 nmol/kg, day 7): 1.2 g
food intake (DIO C57BL/6J mice; DIO mice, 200 nmol/kg, day 14): 1.7 g
additional weight loss over liraglutide (DIO C57BL/6J mice; DIO mice, GIPR-engaging dose): 10%
glucose AUC 4 hours after administration (in words) (C57BL/6J-DIO mice): more efficacious than liraglutide in DIO mice
in vivo potency vs liraglutide (in words) (lean C57BL/6J mice): more potent than liraglutide in vivo
duration of glucose lowering (in words) (lean C57BL/6J mice; lean C57BL/6J and DIO mice, single 20 nmol/kg): remained efficacious up to 48 hours post-administration
ED50 for improving post-prandial glucose in ipGTT (lean C57BL/6J mice; lean C57BL/6J mice, 4 h after SC dose): 0.46 nmol/kg
acute effect on GLUC AUC (in words) (lean C57BL/6J mice; lean mice, 20 nmol/kg, 4 h after administration): acute reduction of glucose (GLUC) AUC
reduction in GLUC AUC vs. vehicle (lean C57BL/6J mice; lean mice, 20 nmol/kg, 48 hours): 45%

Source: US20240366728A1, “Treatment of Diabetes Mellitus” (Carmot Therapeutics Inc., priority 2023, published 2024)
